Experimental data taken from patent publication US6160004A, “C-10 carbon-substituted artemisinin-like trioxane compounds having antimalarial, antiproliferative and antitumor activities” (priority 1998, dated 2000).
pIC50: −log10 of the molar value. Read-outs that look alike come from different tables or passages of the source.

Tests used:
RPMI-8226 = experiment: NCI 60 cell line panel screening assay (SRB), RPMI-8226; assay type: cell-based; conditions: Homo sapiens; for GI50: read-out: Log10 GI50 (converted)
SR = experiment: cells; assay type: cell-based; conditions: Homo sapiens, 48 h; for CC50: read-out: Log10 LC50 (converted); for GI50: read-out: Log10 GI50 (converted)
HOP-62 = experiment: cells; assay type: cell-based; conditions: Homo sapiens; HOP-62, non-small cell lung cancer, 48 h; read-out: Log10 GI50 (converted)
HOP-92 = experiment: cells; assay type: cell-based; conditions: Homo sapiens; HOP-92, non-small cell lung cancer, 48 h; read-out: Log10 GI50 (converted)
NCI-H226 = experiment: cells; assay type: cell-based; conditions: Homo sapiens; NCI-H226, non-small cell lung cancer, 48 h; read-out: Log10 GI50 (converted)
COLO 205 = experiment: NCI 60 cell line panel screening assay (SRB), COLO 205; assay type: cell-based; conditions: Homo sapiens, read-out: Log10 GI50 (converted)
KM12 = experiment: cells; assay type: cell-based; conditions: Homo sapiens, read-out: Log10 GI50 (converted)
SNB-19 = experiment: cells; assay type: cell-based; conditions: Homo sapiens, SNB-19, CNS cancer, 48 h
SNB-75 = experiment: cells; assay type: cell-based; conditions: Homo sapiens, SNB-75, CNS cancer, 48 h; for GI50: read-out: Log10 GI50 (converted)
U251 = experiment: cells; assay type: cell-based; conditions: Homo sapiens, read-out: Log10 GI50 (converted)
SK-MEL-28 = experiment: cells; assay type: cell-based; conditions: Homo sapiens, SK-MEL-28, melanoma, 48 h
UACC-257 = experiment: cells; assay type: cell-based
OVCAR-5 = experiment: cells; assay type: cell-based; conditions: Homo sapiens; OVCAR-5, ovarian cancer, 48 h; read-out: Log10 GI50 (converted)
786-0 = experiment: cells; assay type: cell-based; conditions: Homo sapiens; for GI50: read-out: Log10 GI50 (converted)
A498 = experiment: cells; assay type: cell-based; conditions: Homo sapiens, A498, renal cancer, 48 h
RXF 393 = experiment: cells; assay type: cell-based; conditions: Homo sapiens; RXF 393, renal cancer, 48 h; read-out: Log10 TGI
SN12C = experiment: NCI 60 cell line panel screening assay (SRB), SN12C; assay type: cell-based; conditions: Homo sapiens, renal cancer, 48 h, read-out: Log10 TGI
TK-10 = experiment: cells; assay type: cell-based; conditions: Homo sapiens, TK-10, renal cancer, 48 h; for IC (TGI): read-out: Log10 TGI
PC-3 = experiment: cells; assay type: cell-based; conditions: Homo sapiens, PC-3, prostate cancer, 48 h
MCF7 = experiment: cells; assay type: cell-based; conditions: Homo sapiens; for GI50: read-out: Log10 GI50 (converted)
MOLT-4 = experiment: cells; conditions: Homo sapiens; for GI50: read-out: Log10 GI50 (converted); for pIC50: MOLT-4, read-out: concentration for primary growth inhibition (PG +50)
60 cell line panel = experiment: NCI 60 cell line panel, whole panel; conditions: panel
M14 = experiment: NCI 60 cell line panel screening assay (SRB), M14; conditions: Homo sapiens, M14, 48 h, read-out: Log10 LC50 (converted)
T-47D = experiment: NCI 60 cell line panel screening assay (SRB), T-47D; conditions: Homo sapiens, T47D, 48 h
CCRF-CEM = experiment: cells; assay type: cell-based; conditions: Homo sapiens, 48 h
SF-268 = experiment: cells; assay type: cell-based; conditions: Homo sapiens; SF-268, CNS cancer, 48 h; read-out: Log10 LC50 (converted)
OVCAR-3 = experiment: cells; assay type: cell-based; conditions: Homo sapiens; OVCAR-3, ovarian cancer, 48 h; read-out: Log10 LC50 (converted)
SK-OV-3 = experiment: cells; assay type: cell-based; conditions: Homo sapiens; SK-OV-3, ovarian cancer, 48 h; read-out: Log10 TGI (converted)
BT-549 = experiment: cells; assay type: cell-based; conditions: Homo sapiens; BT-549, breast cancer, 48 h; read-out: Log10 LC50 (converted)
NCI-H322M = experiment: cells; conditions: Homo sapiens, 48 h
[1] = read-out: Log10 GI50 (converted)
[2] = read-out: Log10 LC50 (converted)

C[C@@H]1CC[C@H]2[C@@H](C)C(=O)O[C@@H]3O[C@@]4(C)CC[C@@H]1[C@]32OO4 [Artemisinin]
< 4.00: pIC50 (MOLT-4)
100 µM: IC (TGI) (MOLT-4; MOLT-4, 48 h, read-out: Log10 TGI)
-4.00: Delta of Log10 LC50 (60 cell line panel)
0.06: Range of Log10 TGI (60 cell line panel)
> 100 µM: GI50 (RPMI-8226; RPMI-8226, leukemia, 48 h) | CC50 (SR) | GI50 (SR; leukemia) | GI50 (HOP-62) | GI50 (HOP-92) | GI50 (NCI-H226) | GI50 (COLO 205; COLO 205, colon cancer, 48 h) | GI50 (KM12; KM12, colon cancer, 48 h) | GI50 (SNB-19; [1]) | IC (TGI) (SNB-19; read-out: Log10 TGI) | GI50 (SNB-75) | GI50 (U251; U-251, U251, CNS cancer, 48 h) | GI50 (SK-MEL-28; [1]) | GI50 (UACC-257; Homo sapiens, UACC-257, 48 h; read-out: Log10 GI50 (converted)) | IC (TGI) (UACC-257; Homo sapiens, UACC-257, 48 h; read-out: Log10 TGI (converted)) | GI50 (OVCAR-5) | GI50 (786-0; 786-0, renal cancer, 48 h) | IC (TGI) (786-0; 786-0, renal cancer, 48 h, read-out: Log10 TGI) | GI50 (A498; [1]) | IC (TGI) (A498; read-out: Log10 TGI) | IC (TGI) (RXF 393) | IC (TGI) (SN12C) | GI50 (TK-10; [1]) | IC (TGI) (TK-10) | IC (TGI) (PC-3; read-out: Log10 TGI) | GI50 (MCF7; MCF7, breast cancer, 48 h) | IC (TGI) (MCF7; MCF7, breast cancer, 48 h, read-out: Log10 TGI) | CC50 (M14) | IC (TGI) (T-47D; read-out: Log10 TGI)
18.6 µM: GI50 (MOLT-4; MOLT-4, 48 h)

CC1CCC2C(C)C(CC(=O)c3ccc(C(=O)CC4OC5OC6(C)CCC7C(C)CCC(C4C)C57OO6)cc3)OC3OC4(C)CCC1C32OO4 (stereo not shown) [Dimer 38]
< 0.01 µM: GI50 (CCRF-CEM; [1]) | GI50 (RPMI-8226; RPMI-8226, leukemia, 48 h) | IC (TGI) (RPMI-8226; RPMI-8226, leukemia, 48 h, read-out: Log10 TGI) | GI50 (SR) | GI50 (COLO 205; COLO 205, 48 h) | GI50 (KM12; KM12, 48 h) | GI50 (U251; U-251, 48 h) | GI50 (PC-3; [1]) | GI50 (MCF7; MCF7, 48 h) | GI50 (MOLT-4; MOLT-4, 48 h) | GI50 (T-47D; [1])
0.0209 µM: GI50 (UACC-257; Homo sapiens, UACC-257, 48 h, read-out: Log10 GI50 (converted))
3.17: Delta of Log10 TGI (60 cell line panel)
0.0151 µM: GI50 (786-0; 786-0, 48 h)
3.8 µM: GI50 (NCI-H322M; [1])
> 100 µM: CC50 (CCRF-CEM; [2]) | CC50 (RPMI-8226; RPMI-8226, 48 h, read-out: Log10 LC50 (converted)) | CC50 (SR; leukemia) | CC50 (SF-268) | CC50 (SNB-19; [2]) | CC50 (SNB-75; [2]) | CC50 (SK-MEL-28; [2]) | IC (TGI) (SK-MEL-28; read-out: Log10 TGI) | CC50 (UACC-257; Homo sapiens, UACC-257, 48 h; read-out: Log10 LC50 (converted)) | CC50 (OVCAR-3) | CC50 (TK-10; [2]) | IC (TGI) (TK-10) | CC50 (BT-549) | CC50 (MOLT-4; MOLT-4, 48 h, read-out: Log10 LC50 (converted)) | CC50 (MOLT-4; MOLT-4, read-out: concentration for cytotoxicity (PG -50)) | CC50 (NCI-H322M; [2]) | IC (TGI) (NCI-H322M; read-out: Log10 TGI) | CC50 (T-47D; [2])
> 7.00: pIC50 (MOLT-4)
0.117 µM: GI50 (SNB-75)
21.4 µM: IC (TGI) (SK-OV-3)
